Where two headings read alike, the source gives them in different places.

One data set has as its system MDCKII-parent. In words: MTT proliferation / drug combination assay. The data set is classed as cell-based, Canine. The conditions noted are these: Canis lupus familiaris, 48 h. The procedure: (§1) The viability MTT assay was employed in several experimental sets, including induction studies, comparative viability assays, and drug combinations. First, 1.3 × 10^4 (MDCKII sublines), 1.2 × 10^4 (A431 sublines), 1.5 × 10^4 (MCF-7), and 1.0 × 10^4 (primary NSCLC explants) cells were seeded in 96-well plates. After seeding, cells were left to refresh in incubator for 24 h. Secondly, the medium was removed, and the serial dilutions of the drugs or drug combinations were added to the cells. Next to these variants, a medium with 40% DMSO and vehicle-containing media were tested as nonviable and unaffected viability controls, respectively. After an additional 48 h of incubation, the cells were washed with 1 × PBS and then treated with 1 mg/mL MTT solution in Opti-MEM. Subsequently, cells were incubated for 60 min under standard conditions. After MTT treatment, generated formazan crystals were solubilized with DMSO for 10 min. Wavelengths of 570 nm (formazan) and 690 nm (background) were used for absorbance measurements using a microplate reader Infinite 200 Pro NanoQuant (Tecan, Männedorf, Switzerland).
(§2) In vitro cell lines (MDCKII and A431) and primary NSCLC explants were seeded (see densities above) in 96-well plates and incubated for 24 h. […] Combined cells were incubated with the tested compounds for 48 h, and subsequently, MTT assay was performed to assess cell viability as described above. Besides IC50-shift analysis, CompuSyn 3.0.1 software (ComboSyn Inc., Paramus, NJ, USA) was used for the additional analysis of obtained data. This software works with the algorithms of the combination index (CI) method of Chou–Talalay, which is frequently used for the accurate quantification of drug combinations’ outcomes. According to the CI method principle, the combination effects were separated into three categories, including synergistic (CI < 0.9), additive (CI between 0.9–1.1), or antagonistic (CI > 1.1) ones.

The next data set concerns A431-parent. In words: MTT proliferation / drug combination assay. The format is cell-based. The conditions noted are these: Homo sapiens, 48 h. The procedure: as §1, §2
Data set [1] can be described thus: MTT proliferation / drug combination assay. The format is cell-based, Canine. The conditions noted are these: dog, MDCKII-ABCG2 cells; read-out: IC50. The procedure: as §1, §2
The test system of a further data set is A431-ABCG2. In words: MTT proliferation / drug combination assay. The data set is classed as cell-based. The conditions noted are these: Homo sapiens, 48 h; read-out: IC50. The procedure:
as §1, §2

By IC50 is commonly meant the concentration that gives 50% inhibition. Take `COc1cccc2c1C(=O)c1c(O)c3c(c(O)c1C2=O)C[C@@](O)(C(C)=O)C[C@@H]3O[C@H]1C[C@H](N)[C@H](O)[C@H](C)O1` [daunorubicin]: the IC50 is 1000 nM with MDCKII-parent and 1110 nM in the data set with A431-parent.
For `O=C1c2c(O)ccc(O)c2C(=O)c2c(NCCNCCO)ccc(NCCNCCO)c21` [mitoxantrone], the IC50 with MDCKII-parent (read-out: IC50) worked out at 1480 nM; in the data set with A431-ABCG2, 10000 nM; with A431-parent (read-out: IC50), 880 nM. Besides, the IC50 at 48 h in data set [1] was 12100 nM.

These data come from paper PMC9697930 (International Journal of Molecular Sciences, 2022).
